# From patent publication US5162336A, “Tetrahydro-pyrido-indoles as cholecystokinin and gastrin antagonists” (Rhone-Poulenc Rorer Pharmaceuticals Inc., priority 1990, dated 1992)
# Biological target: T1, Gastrin receptor (Cavia porcellus, UniProt H0VZC5)
# T1 construct: The fundic mucosa is gently scraped off the submucosa; from tissue; host or cells: gastric glands from fundic mucosa of Hartley guinea pig
# T1 sequence (H0VZC5 1-426): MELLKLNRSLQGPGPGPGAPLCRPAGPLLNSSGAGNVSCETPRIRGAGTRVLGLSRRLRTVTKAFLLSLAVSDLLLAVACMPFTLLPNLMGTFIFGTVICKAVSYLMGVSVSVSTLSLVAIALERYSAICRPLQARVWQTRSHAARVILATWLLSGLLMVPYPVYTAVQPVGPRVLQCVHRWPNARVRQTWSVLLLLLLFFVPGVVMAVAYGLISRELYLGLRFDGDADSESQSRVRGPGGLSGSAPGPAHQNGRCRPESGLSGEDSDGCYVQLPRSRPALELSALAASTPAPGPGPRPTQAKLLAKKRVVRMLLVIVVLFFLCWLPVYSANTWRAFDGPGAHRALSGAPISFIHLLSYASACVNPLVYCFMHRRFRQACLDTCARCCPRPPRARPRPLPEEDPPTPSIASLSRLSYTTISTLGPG
# Assay: Gastrin receptor binding assay (displacement of 125I-(Leu-15)-Gastrin from guinea pig fundic glands)
# Set-up: species or system guinea pig (Hartley Strain)
# Conditions: guinea pig fundic mucosa glands, 25° C., 30 min, read-out: In vitro Binding Data IC50 Gastrin
# Description: (a) Phosphate Buffered Saline (PBS): 8.743 g NaCl, 523 mg K2 HPO4 and 76.8 mg NaH2 PO4 is dissolved in 1.0 liter of deionized water and the pH of the solution is adjusted to 7.3 with 5N NaOH.
# (b) Buffer A: While adding Basal Medium Eagle (BME) containing Earle's Salts, L-glutamine and 25 mM HEPES, 3 liters of deionized water is stirred, followed by the addition and dissolution of […] of sodium bicarbonate. The solution is then equilibrated with 95% O2 /5% CO2 gas followed by titration to a pH of 7.4 with NaOH.
# (c) Buffer B: 18.75 mg of collagenase and […] of BSA is dissolved in 25 ml of Buffer A.
# (d) Buffer C: 0.3 g of BSA is dissolved in 300 ml of Buffer A.
# (e) 6.25 mg Bacitracin is dissolved in 25 ml of Buffer A.
# (f) ^125 I-(Leu-15)-Gastrin: 100 microcurie dissolved in 2.0 ml of Buffer A to make 50 microcurie/ml.
# (g) ^125 I-(15-methionine)-Human Gastrin: 50 microcurie/ml.
# (h) (Leu 15)-Gastrin: 5.2 mg of (Leu-15)- Gastrin is dissolved in 10 ml of Buffer A. At the time of assay 1:10 dilution is made and 10 μl assay tube is used.
# A guinea pig (Hartley Strain) weighing 150-200 grams, is sacrificed by CO2 asphyxiation and the stomach immediately excised, cut along the greater curvature, cleaned out and immediately immersed in a beaker containing cold PBS, pH 7.3, to insure thorough cleaning. The fundic mucosa is gently scraped off the submucosa and added to a preweighed 50 ml plastic centrifuge tube containing 30 ml of cold Buffer A. The weight of the plastic centrifuge tube containing the buffer is then subtracted from the combined weight of the mucosa and the buffer-containing tube to give the weight of the mucosa. The weight of the mucosa thus determined is recorded for later calculations.
# The mucosa is then washed twice in Buffer A. After the final wash, the tissue is minced and is placed in a 100-ml glass beaker containing about 1.0 ml of Buffer A, and washed twice again by repeated centrifugation at 50×g for 5 minutes each and aspiration of supernatant. The washed tissue fragments are then added to a glass Erlenmeyer flask containing 25 ml of Buffer B and incubated in a Dubnoff shaking water bath at 37° C. for 30 minutes in a 95% O2 - 5% CO2 atmosphere. After the incubation, the digested tissue fragments in the Collegenase-buffer solution are triturated, filtered through a 200-micron nylon mesh and centrifuged at 50×g for 5 minutes. The supernatant is aspirated and discarded, the tissue washed 2× in Buffer C, resuspended in same buffer, incubated in a 37° C. water bath in an atmosphere of 95% O2 - 5% CO2 for 5 minutes, and centrifuged. The pelleted glands are suspended in Buffer D at a desired concentration of 2x10^5 glands/ml to use in the receptor binding assay.
# Six minisorp tubes (16×100 mm) are serially marked and divided into two groups thus: tubes #1, #2, and #3 are marked "T" for "Totals" and tubes #4, #5, and #6 are marked "NS" for "Non-Specifics." Into each of the six tubes are added 220 μl of prepared glands in Buffer D; 20 μl of Buffer A in tubes #1, #2, and #3; 10 μl, in tubes #4, #5 and #6; (10μ of (Leu-15)-Gastrin (25 μM) in tubes #4, #5, and #6. The six tubes are then transferred immediately to a 25° C. water bath and challenged each with 10 μl ^125 I-(Leu-15)-Gastrin diluted as per calculation. The tubes are then covered with a gas hood connected to a 95% O2 - 5% CO2 gas source and mechanically agitated in a shaker for 30 minutes.
# At the end of the incubation period, the assay mixtures are each filtered through a Whatman glass fiber filter B on a Brandel tissue harvester and washed twice with Buffer A. The filters are pre-soaked in Buffer C before use. The filter strips are removed after the final wash and individual filters counted in a Gamma Counter. The counts from the "Non-Specific" tubes are then averaged and subtracted from the average "Totals" to give the Specific Counts. […]
row,Structure (SMILES),IC50 [µM]
1,CC(C)C[C@H](NC(=O)[C@H]1Cc2c([nH]c3ccccc23)CN1C(=O)Nc1ccc(Cl)c(Cl)c1)C(=O)NCC(N)=O [Example 28],0.91
2,"Cc1cccc(NC(=O)N2Cc3[nH]c4ccccc4c3C[C@@H]2C(=O)N[C@@H](CC(C)C)C(N)=O)c1 [Example 39, N-[(3R)-2-(3-methylphenylcarbamoyl)-1,2,3,4-tetrahydro-9H-pyrido[3,4-b]indole-3-carboxy]-L-leucinamide]",0.23
3,CC(C)C[C@H](NC(=O)[C@H]1Cc2c([nH]c3ccccc23)CN1)C(=O)N[C@@H](CC(=O)OCc1ccccc1)C(N)=O [Example 40],6
4,Cc1cccc(NC(=O)N2Cc3[nH]c4ccccc4c3C[C@@H]2C(=O)N[C@@H](CC(C)C)C(=O)N[C@@H](Cc2ccccc2)C(N)=O)c1 [Example 42],10
5,CCOC(=O)c1ccc(NC(=O)[C@H]2Cc3c([nH]c4ccccc34)CN2C(=O)Nc2cccc(C)c2)cc1 [Example 43],30
6,"Cc1cccc(NC(=O)N2Cc3[nH]c4ccccc4c3C[C@@H]2C(=O)N2CCC[C@H]2C(=O)N[C@@H](CC(=O)O)C(N)=O)c1 [Example 44, N-[(3R)-2-(3-methylphenylcarbamoyl)-1,2,3,4-tetrahydro-9H-pyrido[3,4-b]indole-3-carboxyl]-L-prolyl-L-aspartic acid amide]",2.2
7,Cc1cccc(NC(=O)N2Cc3[nH]c4ccccc4c3C[C@@H]2C(=O)N[C@H](CC(C)C)C(=O)N[C@H](CC(=O)O)C(N)=O)c1 [Example 45],> 10
8,"CCCCCN(CCCCC)C(=O)[C@H](CC(=O)O)NC(=O)[C@H]1Cc2c([nH]c3ccccc23)CN1C(=O)Nc1cccc(C)c1 [Example 46, N-[(3R)-2-(3-methylphenylcarbamoyl)-1,2,3,4-tetrahydro-9H-pyrido[3,4-b]indole-3-carboxyl]-L-aspartic acid dipentyl amide]",2.6
9,Cc1cccc(NC(=O)N2Cc3[nH]c4ccccc4c3C[C@H]2C(=O)N[C@H](CC(C)C)C(=O)N[C@H](CC(=O)O)C(N)=O)c1 [Example 49],0.9
10,Cc1cccc(NC(=O)N2Cc3[nH]c4ccccc4c3C[C@@H]2C(=O)N[C@@H](CC(C)C)C(=O)N[C@@H](CC(N)=O)C(=O)O)c1 [Example 50],12
11,"Cc1cccc(NC(=O)N2Cc3[nH]c4ccccc4c3C[C@@H]2C(=O)N[C@@H](CC(C)C)C(=O)N[C@H](CC(=O)O)C(N)=O)c1 [Example 51, N-[(3R)-2-(3-methylphenylcarbamoyl)-1,2,3,4-tetrahydro-9H-pyrido[3,4-b]indole-3-carboxyl]-L-leucyl-D-aspartic acid amide]",17
12,Cc1cccc(NC(=O)N2Cc3[nH]c4ccccc4c3C[C@H]2C(=O)N[C@H](CC(C)C)C(=O)N[C@@H](CC(=O)O)C(N)=O)c1 [Example 52],> 30
13,"Cc1cccc(NC(=O)N2Cc3[nH]c4ccccc4c3C[C@@H]2C(=O)N(C)[C@@H](CC(C)C)C(=O)N[C@@H](CC(=O)O)C(N)=O)c1 [Example 53, N-[(3R)-2-(3-methylphenylcarbamoyl)-1,2,3,4-tetrahydro-9H-pyrido[3,4-b]indole-3-carboxyl]N'-methyl-L-leucine-L-aspartic acid amide]",6
14,Cc1cccc(C(=O)N2Cc3[nH]c4ccccc4c3C[C@@H]2C(=O)N[C@@H](CC(C)C)C(=O)N[C@@H](CC(=O)O)C(N)=O)c1 [Example 54],6.8
15,"CC(C)C[C@H](NC(=O)[C@H]1Cc2c([nH]c3ccccc23)CN1C(=O)Nc1ccc(Cl)cc1)C(=O)N[C@@H](CC(=O)O)C(N)=O [Example 55, N-[(3R)-2-(4-chlorophenylcarbamoyl)-1,2,3,4-tetrahydro-9H-pyrido[3,4-b]indole-3-carboxyl]-L-leucyl-L-asartic acid amide]",3.3
16,"Cc1cccc(NC(=O)N2Cc3[nH]c4ccccc4c3C[C@@H]2C(=O)NCC(=O)N[C@@H](CC(=O)O)C(N)=O)c1 [Example 56, N-[(3R)-2-(3-methylphenylcarbamoyl)-1,2,3,4-tetrahydro-9H-pyido[3,4-b]indole-3-carboxyl]glycyl-L-aspartic acid amide]",> 30
17,"Cc1cccc(NC(=O)N2Cc3[nH]c4ccccc4c3C[C@@H]2C(=O)N[C@H](CC(C)C)C(=O)N[C@@H](CC(=O)O)C(N)=O)c1 [Example 57, N-[(3R)-2-(3-methylphenylcarbamoyl)-1,2,3,4-tetrahydro-9H-pyrido[3,4-b]indole-3-carboxyl]-D-leucyl-L-aspartic acid amide]",22
18,Cc1cccc(NC(=O)N2Cc3[nH]c4ccccc4c3C[C@@H]2C(=O)N[C@@H](C)C(=O)N[C@@H](CC(=O)O)C(N)=O)c1 [Example 58],18

# The remaining lines, values ahead:
row,IC50 [µM],Structure (SMILES)
1,2,"CC(C)C[C@H](NC(=O)[C@H]1Cc2c([nH]c3ccccc23)CN1C(=O)Nc1cc(Cl)cc(Cl)c1)C(=O)N[C@@H](CC(=O)O)C(N)=O [Example 59, N-[(3R)-2-(3,5-dichlorophenylcarbamoyl)-1,2,3,4-tetrahydro-9H-pyrido[3,4-b]indole-3-carboxyl]-L-leucyl-L-aspartic acid amide]"
2,15,"Cc1cc(C)cc(NC(=O)N2Cc3[nH]c4ccccc4c3C[C@@H]2C(=O)N[C@@H](CC(C)C)C(=O)N[C@@H](CC(=O)O)C(N)=O)c1 [Example 60, N-[(3R)-2-(3,5-dimethylphenylcarbamoyl)-1,2,3,4-tetrahydro-9H-pyrido[3,4-b]indole-3-carboxyl]-L-leucyl-L-aspartic acid amide]"
3,6.4,COc1cccc(NC(=O)N2Cc3[nH]c4ccccc4c3C[C@@H]2C(=O)N[C@@H](CC(C)C)C(=O)N[C@@H](CC(=O)O)C(N)=O)c1 [Example 61]
4,1.2,CC(C)C[C@H](NC(=O)[C@H]1Cc2c([nH]c3ccccc23)CN1C(=O)Nc1ccc2ccccc2c1)C(=O)N[C@@H](CC(=O)O)C(N)=O [Example 62]
5,4.1,CC(C)C[C@H](NC(=O)[C@H]1Cc2c([nH]c3ccccc23)CN1C(=O)Nc1cccc(C(F)(F)F)c1)C(=O)N[C@@H](CC(=O)O)C(N)=O [Example 63]
6,5.3,Cc1cccc(NC(=O)N2Cc3[nH]c4ccccc4c3C[C@@H]2C(=O)N[C@@H](COCc2ccccc2)C(=O)N[C@@H](CC(=O)O)C(N)=O)c1 [Example 64]
7,7.3,CC(C)C[C@H](NC(=O)[C@H]1Cc2c([nH]c3ccccc23)CN1C(=O)Nc1cccc(F)c1)C(=O)N[C@@H](CC(=O)O)C(N)=O [Example 65]
8,0.54,CC(C)C[C@H](NC(=O)[C@H]1Cc2c([nH]c3ccccc23)CN1C(=O)Nc1ccc(Cl)c(Cl)c1)C(=O)N[C@@H](CC(=O)O)C(N)=O [Example 66]
